Measurements as given in US20240082228A1, “SARS-COV-2 THERAPEUTICS” (priority 2021, published 2024).
Values joined by “and” are separate entries in the source; they are usually repeats but may differ in a detail not shown here. Equal values may be shown once. Read-outs that look alike come from different tables or passages of the source.

How the values were obtained:
SARS-CoV-2 = test: microbe, parasite or virus in culture; format: cell-based; details: for activity at 1 µM: Severe acute respiratory syndrome coronavirus 2, 1 uM, read-out: Normalized Infection (1 uM); for activity at 1 µM / activity at 5 µM / Normalized Infection (1 uM) / log2FC Infection (1 uM) / Normalized Infection (5 uM) / log2FC Infection (5 uM): single replicate, relative to negative control DMSO; for activity at 5 µM: Severe acute respiratory syndrome coronavirus 2, 5 uM, read-out: Normalized Infection (5 uM); for % Infection (1 uM) / % Infection (5 uM): single replicate of triplicate
[1] = for Average Cell Number (1 uM) / Cell Number (1 uM) / Normalized Cell Number (1 uM): compound at 1 uM; for Average Cell Number (1 uM) / Average Cell Number (5 uM): average of normalized cell number, n=3, relative to DMSO; for Cell Number (1 uM) / Normalized Cell Number (1 uM) / Cell Number (5 uM) / Normalized Cell Number (5 uM): single replicate; for Cell Number (1 uM) / Cell Number (5 uM): raw cell count; for Normalized Cell Number (1 uM) / Normalized Cell Number (5 uM): relative to negative control DMSO; for Average Cell Number (5 uM) / Cell Number (5 uM) / Normalized Cell Number (5 uM): compound at 5 uM
[2] = 1 uM, average log2FC infection (n=3) relative to DMSO
[3] = 5 uM, average log2FC infection (n=3) relative to DMSO

Compound	HIT (2 Std, 1 uM) (SARS-CoV-2; 1 uM)	Average Infection (1 uM) (SARS-CoV-2; [2])	Average Infection (5 uM) (SARS-CoV-2; [3])	activity at 1 µM (SARS-CoV-2) [%]	activity at 5 µM (SARS-CoV-2) [%]	HIT (SARS-CoV-2; overall, 1 or 5 uM)	Toxic (1 uM) [1]	Toxic (5 uM) [1]	Average Cell Number (1 uM) [1]	Cell Number (1 uM) [1]	Normalized Cell Number (1 uM) [1]	Average Cell Number (5 uM) [1]	Cell Number (5 uM) [1]	Normalized Cell Number (5 uM) [1]	further results
CCCCN(CCCC)CCC(O)c1cc2c(Cl)cc(Cl)cc2c2cc(C(F)(F)F)ccc12 (stereo not drawn) [Halofantrine lot −4, halofantrine]	HIT	−1.202	−1.864	48.6	23.4	Yes	0 (non-toxic (Normalized Cell number>0.65)	0 (non-toxic (Normalized Cell number>0.65)	0.8035	4727 and 4541 and 4857	0.8067 and 0.7749 and 0.8288	0.6652	–	–	HIT (2 Stdv, 5 uM) (SARS-CoV-2; 5 uM): HIT
CC(C(=O)O)c1ccc(C(=O)c2ccccc2)s1 (stereo not drawn) [Tiaprofenic Acid, tiaprofenic acid]	HIT	−0.4462	−0.06461	71.2	–	Yes	0 (non-toxic (Normalized Cell number>0.65)	0 (non-toxic (Normalized Cell number>0.65)	0.8638	5511 and 5420 and 4255	0.9404 and 0.9249 and 0.7261	0.9679	6146 and 5679 and 5383	1.037 and 0.9583 and 0.9083	–
CCC[C@H](N[C@@H](C)C(=O)N1[C@H](C(=O)O)C[C@@H]2CCCC[C@@H]21)C(=O)OCC [Perindopril, perindopril]	HIT	−0.8775	−0.1846	62.3	96.4	Yes	0 (non-toxic (Normalized Cell number>0.65)	0 (non-toxic (Normalized Cell number>0.65)	0.7365	4330 and 4259 and 4358	0.7389 and 0.7268 and 0.7437	0.9903	5734 and 6091 and 5782	0.9676 and 1.028 and 0.9757	–
CC1(C)S[C@@H]2[C@H](/N=C/N3CCCCCC3)C(=O)N2[C@H]1C(=O)O [Mecillinam, mecillinam]	HIT	−3.47	−0.06608	–	104	Yes	0 (non-toxic (Normalized Cell number>0.65)	0 (non-toxic (Normalized Cell number>0.65)	1.097	6136 and 6699 and 6450	1.047 and 1.143 and 1.101	0.9928	6088 and 5755 and 5808	1.027 and 0.9711 and 0.9801	–
N=C(N)c1ccc2nc(-c3cc(CC(=O)N[C@@H](CC(=O)O)C(=O)O)cc(-c4cc(S(N)(=O)=O)ccc4O)c3O)[nH]c2c1 [PCl 27483, pci-27483]	HIT	−0.6789	0.006187	58	104	Yes	0 (non-toxic (Normalized Cell number>0.65)	0 (non-toxic (Normalized Cell number>0.65)	0.775	4643 and 4781 and 4200	0.7923 and 0.8159 and 0.7167	0.9439	5909 and 5702 and 5170	0.9971 and 0.9622 and 0.8724	–
CCCCN(CCCC)CCC(O)c1cc2c(Cl)cc(Cl)cc2c2cc(C(F)(F)F)ccc12 (stereo not drawn) [Halofantrine lot −5, halofantrine]	HIT	−1.062	−1.947	–	–	Yes	0 (non-toxic (Normalized Cell number>0.65)	0 (non-toxic (Normalized Cell number>0.65)	0.6582	3755 and 3889 and 3927	0.6408 and 0.6637 and 0.6701	0.8653	5286 and 5054 and 5044	0.892 and 0.8528 and 0.8511	HIT (2 Stdv, 5 uM) (SARS-CoV-2; 5 uM): HIT
FC(F)(F)c1cccc(C2=CCN(CCc3ccc4ccccc4c3)CC2)c1 [Xaliproden, xaliproden]	HIT	−0.6769	−0.143	–	–	Yes	0 (non-toxic (Normalized Cell number>0.65)	0 (non-toxic (Normalized Cell number>0.65)	0.7188	4440 and 4549 and 3647	0.7577 and 0.7763 and 0.6224	0.9135	5577 and 5737 and 4927	0.9411 and 0.9681 and 0.8314	–
O=C(O)CNC(=O)C1C(=O)N(C2CCCCC2)C(=O)N(C2CCCCC2)C1=O [Daprodustat, daprodustat]	HIT	–	–	57.7	–	Yes	0 (non-toxic (Normalized Cell number>0.65)	0 (non-toxic (Normalized Cell number>0.65)	0.7431	4292 and 4412 and 4360	0.7324 and 0.7529 and 0.744	0.9695	5964 and 5671 and 5601	1.006 and 0.9569 and 0.9451	Average Infection (1 uM) (SARS-CoV-2): −0.8526; Average Infection (5 uM) (SARS-CoV-2): −0.09093
CC(C)OC(=O)[C@H](C)N[P@](=O)(OC[C@H]1O[C@@H](n2ccc(=O)[nH]c2=O)[C@](C)(F)[C@@H]1O)Oc1ccccc1 [PSI-7977, Sofosbuvir]	–	–	–	80.9	70.5	Yes	0 (non-toxic (Normalized Cell number>0.65)	0 (non-toxic (Normalized Cell number>0.65)	1.039	6209 and 5916 and 6135	1.06 and 1.01 and 1.047	0.991	5941 and 5681 and 5997	1.002 and 0.9586 and 1.012	Average Infection (1 uM) (SARS-CoV-2): −0.27; Average Infection (5 uM) (SARS-CoV-2): −0.4905; HIT (2 Stdv, 5 uM) (SARS-CoV-2; 5 uM): HIT
CC(C)(C[C@H]1CN(S(=O)(=O)c2cccc(C(F)(F)F)c2)c2cc(-c3cc(F)cc(OC(F)F)c3)ccc2O1)C(=O)O [Cintirorgon, cintirorgon]	HIT	−0.8423	−0.109	53.8	–	Yes	0 (non-toxic (Normalized Cell number>0.65)	0 (non-toxic (Normalized Cell number>0.65)	0.7476	4247 and 4539 and 4357	0.7247 and 0.7746 and 0.7435	0.9874	5894 and 6058 and 5603	0.9946 and 1.022 and 0.9455	–
cefonicid	HIT	–	–	–	–	Yes	0 (non-toxic (Normalized Cell number>0.65)	0 (non-toxic (Normalized Cell number>0.65)	0.9122	5339 and 5337 and 5361	0.9111 and 0.9108 and 0.9148	0.9876	5781 (2×) and 5996	0.9755 (2×) and 1.012	Average Infection (1 uM) (SARS-CoV-2): −0.4929; Average Infection (5 uM) (SARS-CoV-2): 0.04523; % Infection (1 uM) (SARS-CoV-2; 1 uM): 19.07% and 19.19% and 17.78%; Normalized Infection (1 uM) (SARS-CoV-2; 1 uM): 0.7259 and 0.7305 and 0.6768; log2FC Infection (1 uM) (SARS-CoV-2; 1 uM): −0.4622 and −0.4531 and −0.5633; % Infection (5 uM) (SARS-CoV-2; 5 uM): 16.97% and 13.67% and 17.29%; Normalized Infection (5 uM) (SARS-CoV-2; 5 uM): 1.102 and 0.8875 and 1.123; log2FC Infection (5 uM) (SARS-CoV-2; 5 uM): 0.1402 and −0.1722 and 0.1676
O=C(c1ccc(F)cc1)N1CCC[C@H](c2nc(-c3ccc(F)cc3)no2)C1 [ADX-47273, adx-47273]	HIT	–	–	–	–	Yes	–	–	–	–	–	–	–	–	Average Infection (1 uM) (SARS-CoV-2): −0.4315; Average Infection (5 uM) (SARS-CoV-2): −0.3579; % Infection (1 uM) (SARS-CoV-2; 1 uM): 21.77% and 18.58% and 18.27%; Normalized Infection (1 uM) (SARS-CoV-2; 1 uM): 0.8288 and 0.7074 and 0.6954; log2FC Infection (1 uM) (SARS-CoV-2; 1 uM): −0.271 and −0.4995 and −0.524; % Infection (5 uM) (SARS-CoV-2; 5 uM): 14.06% and 10.49% and 11.77%; Normalized Infection (5 uM) (SARS-CoV-2; 5 uM): 0.9128 and 0.681 and 0.7644; log2FC Infection (5 uM) (SARS-CoV-2; 5 uM): −0.1316 and −0.5544 and −0.3876
Cc1ccccc1-n1c(Cn2nc(-c3cccc(O)c3)c3c(N)ncnc32)nc2cccc(C)c2c1=O [PIK-294, pik-294]	–	–	–	–	–	–	0 (non-toxic (Normalized Cell number>0.65)	0 (non-toxic (Normalized Cell number>0.65)	0.7115	4346 and 3954 and 4208	0.7416 and 0.6747 and 0.7181	0.9038	5244 and 5589 and 5236	0.8849 and 0.9431 and 0.8835	–
CCOC(=O)N1CCC(=C2c3ccc(Cl)cc3CCc3cccnc32)CC1 [Loratadine, loratadine]	–	−0.3263	−1.089	81.8	54	–	–	–	–	–	–	–	–	–	HIT (SARS-CoV-2): Yes; HIT (2 Stdv, 5 uM) (SARS-CoV-2): HIT
